One experiment concerns the target T1, human PPARα (Homo sapiens, UniProt Q07869).
T1 construct: expressed in transfected cells
T1 sequence (Q07869 167-468): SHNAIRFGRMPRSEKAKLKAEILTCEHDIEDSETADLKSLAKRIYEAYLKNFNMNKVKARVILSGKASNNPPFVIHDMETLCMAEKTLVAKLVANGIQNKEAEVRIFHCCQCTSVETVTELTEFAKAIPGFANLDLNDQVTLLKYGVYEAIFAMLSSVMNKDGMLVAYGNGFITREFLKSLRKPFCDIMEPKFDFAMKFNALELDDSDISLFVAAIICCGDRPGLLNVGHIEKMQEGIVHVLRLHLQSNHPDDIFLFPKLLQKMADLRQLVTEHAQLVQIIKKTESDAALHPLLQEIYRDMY
Put plainly: Human PPARα transactivation assay (Gal4/PPAR-LBD, luciferase reporter). It is filed as cell-based. An excerpt:
In order to examine the activity of Compound CW on PPARα, a transactivation assay was used. Transactivation assays take advantage of the modular domain structure of nuclear receptors. A fusion protein was made between the human or mouse PPAR ligand binding domain (PPAR-LBD) and the yeast Gal4 DNA binding domain (“activator plasmid”). The reporter gene construct consisted of the Gal4 DNA binding element in cis with a luciferase reporter. When an agonist binds the Gal4/PPAR-LBD, the fusion protein binds the Gal4 DNA binding element on the reporter gene resulting in transcription of the firefly luciferase gene. Luciferase oxidizes the substrate luciferin in an ATP-dependent reaction; the amount of light given off is a direct measure of the level of the enzyme and, consequently, of the activity of the ligand binding the PPAR-LBD.
The activator expressing plasmids contained a yeast GAL4 DNA-binding domain fused to the human PPARα ligand binding and hinge domains (a.a. 167-468). The reporter plasmid used was pFRLuc, which has the firefly luciferase gene under the control of a GAL4 UAS containing promoter (Stratagene (La Jolla, Calif.)).
One day prior to transfection, cells were seeded in 24-well plates at a density of 5×10^4-2×10^5 cells/well, depending upon the cell type. Cells were transfected using Lipofectamine 2000 reagent (Invitrogen (Calsbad, Calif.)). […]
For orientation: A reporter such as luciferase makes a cellular process visible.

Another experiment concerns db/db mice. Put plainly: Antidiabetic effects in db/db mouse model of type II diabetes (serum chemistry after 2 weeks daily oral dosing). It is filed as in vivo. An excerpt: db/db mice have a defect in leptin signaling, leading to hyperphagia, obesity and diabetes. Moreover, unlike ob/ob mice on a C57BL/6J background, db/db mice on a C57BLKS background undergo failure of their insulin-producing pancreatic islet cells, resulting in progression from hyperinsulinemia (associated with peripheral insulin resistance) to hypoinsulinemic diabetes.
Male obese (db/db homozygote) C57BL/Ksola mice approximately 8 weeks of age, were obtained from Jackson Labs (Bar Harbor, Me.) and randomly assigned into groups of 5-7 animals such that the body weights (40-45 g) and serum glucose levels (≧300 mg/dl in fed state) were similar between groups; male lean (db/+ heterozygote) mice served as cohort controls. A minimum of 7 days was allowed for adaptation after arrival. All animals were maintained under controlled temperature (23° C.), relative humidity (50±5%) and light (7:00-19:00), and allowed free access to standard chow (Formulab Diet 5008, Quality Lab Products, Elkridge, Md.) and water.
Mice received daily oral doses of vehicle or Compound CW for 2 weeks. At the end of the treatment period 100 μl of venous blood was withdrawn in a heparinized capillary tube from the retro-orbital sinus for serum chemistry analysis. Mice were in the fed state at the time of blood sampling.

Where [1] appears, read: after 2 weeks of daily oral dosing.

Turning to `Cc1cccc(C)c1COc1cccc(C(C)C(=O)O)c1` (racemic) [Compound CW, 2-(3-(2,6-Dimethylbenzyloxy)-phenyl)-2-(R,S)-methylacetic acid], the “Activity on human PPARα (type of agonism)” value on human PPARα (Gal4/human PPARα-LBD luciferase transactivation, 24 hours treatment, FIG. 1) is listed as “partial agonist”. In addition, in the experiment with db/db mice (100 mg/kg daily oral, 2 weeks, fed state, vehicle control 735 ± 66), the “Glucose (serum glucose)” value amounted to 171 ± 66 mg/dL. Moreover, in the experiment on db/db mice (setting [1]), the “Effect on blood glucose” value is recorded as “significant reduction” and the “Effect on serum triglycerides” value is recorded as “reduced”. Besides, in the experiment on db/db mice (daily oral dosing 2 weeks, fed state, vehicle 221 ± 62), the “Triglycerides ± SEM (serum triglycerides)” value stood at 109 ± 13 mg/dL.
For `Cc1cccc(Nc2cc(Cl)nc(SCC(=O)O)n2)c1C` [Wy-14,643, reference compound], the “Maximal activity in transactivation assay” value at human PPARα (positive control, same experiment) was ~40,000 RLU.

The record behind these values is patent US8178675B2, “Compounds for the treatment of metabolic disorders” (Wellstat Therapeutics Corporation, priority 2005, dated 2012).
